Series [1] can be described thus: In vitro plasma protein binding (ultrafiltration), rat. Format: in vitro ADME. The following applies: 100 and 1000 ng/mL. The procedure: (§1) Stock solutions were spiked into plasma to achieve the intended concentrations. After incubation for 1 hour at 37°C under constant gentle agitation, the spiked plasma samples (n = 3) were centrifuged (2000 g, 10 min, 37°C) in pre‐warmed Centrifree devices. Total radioactivity was determined in the ultrafiltrate (Cu, concentration of unbound compound) and in the sample introduced into the reservoir before ultrafiltration (Cp). The unbound (fu) and the bound (fb) fraction in plasma were calculated as follows: fu (%) = Cu/Cp × 100; fb (%) = 100‐Fu (%).

Series [2] is described as follows: In vitro plasma protein binding (ultrafiltration), human. Type of series: in vitro ADME. The following applies: plasma, 10-10 000 ng/mL. The procedure: as §1
The test system of series [3] is plasma protein. The series is described as above. Type of series: in vitro ADME. The following applies: rat, dog. The procedure: as §1
Series [4] in a line: Placental transfer (fetal vs maternal plasma), rabbit embryofetal development study. Type of series: in vivo. The following applies: female, fetal plasma (relative to maternal plasma), rabbits, 3 hours post dose, Day 20 postcoitum, read-out: Fetal plasma concentration as % of maternal plasma concentration.
The nature of series [5]: Rat milk excretion study. Type of series: in vivo. Particulars: female, milk (relative to plasma), lactating rats, read-out: milk exposure (AUCinf) relative to plasma exposure. The protocol:
Metabolite profiling was conducted on plasma, urine, bile, and feces samples in the rat and dog ADME studies, and further metabolite profiling on plasma and milk was conducted in a dedicated rat milk excretion study.
Plasma samples obtained from these studies were extracted with equal volumes of acetonitrile. Additional extractions of the protein pellet with acetonitrile and/or acetone were conducted as needed to maximize radioactivity recovery. Feces samples were initially extracted with two to four volumes of acetonitrile. Additional extractions of the pellet following centrifugation and removal of supernatant were conducted with acetonitrile and/or acetone as needed to maximize radioactivity recovery. Urine and bile samples were analyzed directly following centrifugation. Radioactivity recoveries following the centrifugation step were measured by LSC. Milk samples were extracted with two volumes of acetonitrile, following centrifugation and removal of supernatant, the pellets were re‐suspended in 100 µL of water and re‐extracted with 200 µL acetonitrile.

Data on one molecule can be found in publication PMC7287031 (Pharmacology Research & Perspectives, 2020).

The structures appear in SMILES notation.

As to `CN(C)C(=O)c1cc2cnc(Nc3ccc(N4CCNCC4)cn3)nc2n1C1CCCC1` [ribociclib, Ribociclib], the unbound share (fraction unbound) (as a rule, the share of the substance not bound to proteins or other matrix) at 1 h in series [1] came out at 0.2 ± 0.01; in series [2], 0.3 ± 0.02. The “difference in unbound fraction in plasma between species” value in series [3] was “up to 1.7 fold”. The Kp at 3 h in series [4] stood at 0.06. Further, the Kp in series [5] came out at 3.6.
